# Laboratory results published in article PMC3207004 (Clinical cancer research : an official journal of the …, 2011).
# “Also recorded” adds a separate entry of the source.
# Key:
# [1] = Continuous EKG monitoring, corrected QT interval; type: in vivo, human; details: days 1 and 15 of cycle 1
# [2] = human, in vivo
# [3] = cited from earlier work
# [4] = Plasma pharmacokinetics of PF-04928473 after oral PF-04929113; type: in vivo, human; details: patients
# [5] = Comprehensive ophthalmologic evaluation of patients on study; type: in vivo, human
# [6] = test system: advanced solid tumors and lymphomas; assay: Assessment of response; type: in vivo, human
# [7] = no reference given, cited from earlier work
# [8] = test system: Hsp70 levels in peripheral blood mononuclear cells (PBMCs); assay: Hsp70 induction in peripheral blood by western blot; type: in vivo, human
# [9] = cited from earlier work; remark: listed apart in the source
# [10] = Phase I dose-escalation study: adverse events, DLT and tolerability in patients; details: drug-related; 33 patients
# [11] = cited from earlier work; remark: listed apart in the source
# [12] = 18 days after initiation of cycle 3
smiles,measurement,setting,value
CC1(C)CC(=O)c2c(C(F)(F)F)nn(-c3ccc(C(N)=O)c(N[C@H]4CC[C@H](OC(=O)CN)CC4)c3)c2C1 [PF-04929113],Effect on the corrected QT interval,[1],did not reveal any effect
same,"ALT elevation, Grade 1",[2],5 (15) Number of patients (%)
same,"ALT elevation, Grade 2",[2],1 (3) Number of patients (%)
same,"ALT elevation, Grade 3",[2],0 Number of patients (%)
same,"ALT elevation, Grade 4",[2],0 Number of patients (%)
same,"AST elevation, Grade 1",[2],3 (9) Number of patients (%)
same,"AST elevation, Grade 2",[2],2 (6) Number of patients (%)
same,"AST elevation, Grade 3",[2],1 (3) Number of patients (%)
same,"AST elevation, Grade 4",[2],0 Number of patients (%)
same,"Abdominal pain, Grade 1",[2],1 (3) Number of patients (%)
same,"Abdominal pain, Grade 2",[2],0 Number of patients (%)
same,"Abdominal pain, Grade 3",[2],0 Number of patients (%)
same,"Abdominal pain, Grade 4",[2],0 Number of patients (%)
same,"Alkaline phosphatase elevation, Grade 1",[2],0 Number of patients (%)
same,"Alkaline phosphatase elevation, Grade 2",[2],2 (6) Number of patients (%)
same,"Alkaline phosphatase elevation, Grade 3",[2],0 Number of patients (%)
same,"Alkaline phosphatase elevation, Grade 4",[2],0 Number of patients (%)
same,"Anemia, Grade 1",[2],2 (6) Number of patients (%)
same,"Anemia, Grade 2",[2],3 (9) Number of patients (%)
same,"Anemia, Grade 3",[2],0 Number of patients (%)
same,"Anemia, Grade 4",[2],0 Number of patients (%)
same,"Anorexia, Grade 1",[2],2 (6) Number of patients (%)
same,"Anorexia, Grade 2",[2],1 (3) Number of patients (%)
same,"Anorexia, Grade 3",[2],0 Number of patients (%)
same,"Anorexia, Grade 4",[2],0 Number of patients (%)
same,"Arthritis (non-septic), Grade 1",[2],0 Number of patients (%)
same,"Arthritis (non-septic), Grade 2",[2],1 (3) Number of patients (%)
same,"Arthritis (non-septic), Grade 4",[2],0 Number of patients (%)
same,"Constipation, Grade 1",[2],1 (3) Number of patients (%)
same,"Constipation, Grade 2",[2],0 Number of patients (%)
same,"Constipation, Grade 3",[2],0 Number of patients (%)
same,"Constipation, Grade 4",[2],0 Number of patients (%)
same,"Cough, Grade 1",[2],1 (3) Number of patients (%)
same,"Cough, Grade 2",[2],0 Number of patients (%)
same,"Cough, Grade 3",[2],0 Number of patients (%)
same,"Cough, Grade 4",[2],0 Number of patients (%)
same,"Creatinine phosphokinase elevation, Grade 1",[2],1 (3) Number of patients (%)
same,"Creatinine phosphokinase elevation, Grade 2",[2],0 Number of patients (%)
same,"Creatinine phosphokinase elevation, Grade 3",[2],0 Number of patients (%)
same,"Creatinine phosphokinase elevation, Grade 4",[2],0 Number of patients (%)
same,"Diarrhea, Grade 1",[2],4 (12) Number of patients (%)
same,"Diarrhea, Grade 2",[2],0 Number of patients (%)
same,"Diarrhea, Grade 3",[2],3 (9) Number of patients (%)
same,"Diarrhea, Grade 4",[2],0 Number of patients (%)
same,Dose Level at which grade 3 AST elevation occurred,[2],77 mg/m^2
same,Dose Level at which grade 3 Non-septic arthritis occurred,[2],16 mg/m^2
same,Dose Level at which grade 3 Thrombocytopenia occurred,[2],177 mg/m^2
same,"Dysgeusia, Grade 1",[2],1 (3) Number of patients (%)
same,"Dysgeusia, Grade 2",[2],1 (3) Number of patients (%)
same,"Dysgeusia, Grade 3",[2],0 Number of patients (%)
same,"Dysgeusia, Grade 4",[2],0 Number of patients (%)
same,"Dyspepsia, Grade 1",[2],1 (3) Number of patients (%)
same,"Dyspepsia, Grade 2",[2],0 Number of patients (%)
same,"Dyspepsia, Grade 3",[2],0 Number of patients (%)
same,"Dyspepsia, Grade 4",[2],0 Number of patients (%)
same,"Edema, Grade 1",[2],0 Number of patients (%)
same,"Edema, Grade 2",[2],1 (3) Number of patients (%)
same,"Edema, Grade 3",[2],0 Number of patients (%)
same,"Edema, Grade 4",[2],0 Number of patients (%)
same,"Emesis, Grade 1",[2],2 (6) Number of patients (%)
same,"Emesis, Grade 2",[2],1 (3) Number of patients (%)
same,"Emesis, Grade 3",[2],0 Number of patients (%)
same,"Emesis, Grade 4",[2],0 Number of patients (%)
same,"Fatigue, Grade 1",[2],4 (12) Number of patients (%)
same,"Fatigue, Grade 2",[2],2 (6) Number of patients (%)
same,"Fatigue, Grade 3",[2],0 Number of patients (%)
same,"Fatigue, Grade 4",[2],0 Number of patients (%)
same,"Flu-like symptoms, Grade 1",[2],1 (3) Number of patients (%)
same,"Flu-like symptoms, Grade 2",[2],0 Number of patients (%)
same,"Flu-like symptoms, Grade 3",[2],0 Number of patients (%)
same,"Flu-like symptoms, Grade 4",[2],0 Number of patients (%)
same,"Hyponatremia, Grade 1",[2],1 (3) Number of patients (%)
same,"Hyponatremia, Grade 2",[2],0 Number of patients (%)
same,"Hyponatremia, Grade 3",[2],0 Number of patients (%)
same,"Hyponatremia, Grade 4",[2],0 Number of patients (%)
same,"Hypophosphatemia, Grade 1",[2],0 Number of patients (%)
same,"Hypophosphatemia, Grade 2",[2],1 (3) Number of patients (%)
same,"Hypophosphatemia, Grade 3",[2],0 Number of patients (%)
same,"Hypophosphatemia, Grade 4",[2],0 Number of patients (%)
same,"Joint pain, Grade 1",[2],1 (3) Number of patients (%)
same,"Joint pain, Grade 2",[2],1 (3) Number of patients (%)
same,"Joint pain, Grade 3",[2],0 Number of patients (%)
same,"Joint pain, Grade 4",[2],0 Number of patients (%)
same,"Leukopenia, Grade 1",[2],2 (6) Number of patients (%)
same,"Leukopenia, Grade 2",[2],0 Number of patients (%)
same,"Leukopenia, Grade 3",[2],0 Number of patients (%)
same,"Leukopenia, Grade 4",[2],0 Number of patients (%)
same,"Lymphopenia, Grade 1",[2],2 (6) Number of patients (%)
same,"Lymphopenia, Grade 2",[2],6 (18) Number of patients (%)
same,"Lymphopenia, Grade 3",[2],0 Number of patients (%)
same,"Lymphopenia, Grade 4",[2],0 Number of patients (%)
same,"Muscle pain, Grade 1",[2],0 Number of patients (%)
same,"Muscle pain, Grade 2",[2],1 (3) Number of patients (%)
same,"Muscle pain, Grade 3",[2],0 Number of patients (%)
same,"Muscle pain, Grade 4",[2],0 Number of patients (%)
same,"Nausea, Grade 1",[2],8 (24) Number of patients (%)
same,"Nausea, Grade 2",[2],1 (3) Number of patients (%)
same,"Nausea, Grade 3",[2],0 Number of patients (%)
same,"Nausea, Grade 4",[2],0 Number of patients (%)
same,"Neutropenia, Grade 1",[2],1 (3) Number of patients (%)
same,"Neutropenia, Grade 2",[2],0 Number of patients (%)
same,"Neutropenia, Grade 3",[2],0 Number of patients (%)
same,"Neutropenia, Grade 4",[2],0 Number of patients (%)
same,"Thrombocytopenia, Grade 1",[2],4 (12) Number of patients (%)
same,"Thrombocytopenia, Grade 2",[2],0 Number of patients (%)
same,"Thrombocytopenia, Grade 3",[2],1 (3) Number of patients (%)
same,"Thrombocytopenia, Grade 4",[2],0 Number of patients (%)
same,"Weight loss, Grade 1",[2],1 (3) Number of patients (%)
same,"Weight loss, Grade 2",[2],0 Number of patients (%)
same,"Weight loss, Grade 3",[2],0 Number of patients (%)
same,"Weight loss, Grade 4",[2],0 Number of patients (%)
same,grade 3 AEs: AST elevation,[2],3%
same,grade 3 AEs: diarrhea,[2],9%
same,grade 3 AEs: non-septic arthritis,[2],3%
same,grade 3 AEs: thrombocytopenia,[2],3%
same,"Arthritis (non-septic), Grade 3",[2]; [12],1 (3) Number of patients (%)
same,Dose at which the DLT (non-septic arthritis) was noted,[2]; [12],16 mg/m^2/dose
same,Oral bioavailability,[3],orally bioavailable
same,Absorption following oral administration,[4],rapidly absorbed
same,Drug-related ocular toxicity in this study,[5]; oral twice weekly,no clinically significant drug-related ocular toxicity was seen in this study
same,Ocular examination findings in single patients,"[5]; three patients at 77, 133 and 177 mg/m^2, after 8, 10 and 28 cycles",slightly prolonged cone-rod break in the right eye but the ERG was normal; also recorded: normal eye exam; also recorded: slightly prolonged cone-rod break in one patient
same,Median duration of disease stabilization,[6]; 15 patients,16 weeks
same,Objective responses,[6]; 32 evaluable patients,no objective tumor responses
same,Anti-tumor activity as a single-agent,[6]; twice weekly continuous dosing,modest anti-tumor activity
same,Patients with visual symptoms (nictalopia and blurred vision),"[7]; another phase I study, daily administration",4 out of 20 and Four out of 20
same,Patients who complained of blurred vision,"[7]; daily administration, grade 1",one
same,Patients who complained of nictalopia,"[7]; daily administration, grade 1",Three
same,Onset of visual event after beginning the drug,"[7]; in most cases, daily administration",≤ 2 weeks
same,DLTs with daily administration,[7],"3 cases of grade 3 diarrhea, 1 case of grade 2 dehydration and grade 3 gastrointestinal hemorrhage and 1 case of grade 3 visual disturbance and grade 3 diarrhea"
same,Dose at or above which an increase in Hsp70 levels was seen in all patients,[8]; PBMCs,≥ 33 mg/m^2/day
same,Patients with increased Hsp70 protein level at day 15 and/or day 16,"[8]; PBMCs, compared to baseline",16 out of 19
same,Relation of Hsp70 induction to PK parameters (Cmax and AUCinf of each cohort),[8]; fold increase at 24h versus baseline,linear correlation
same,Inhibition of Hsp90 in patients (PD studies),[8]; in vivo,confirmed inhibition of Hsp90
same,lowest biologically effective dose,"[8]; orally twice weekly, based on PD data",33 mg/m^2
same,Level of Hsp70 induction as a function of dose,[8]; ≤ 44 vs > 44 mg/m^2/dose,greater at higher dose levels
same,Retinal damage in animal studies,"[9]; canine model, reports, no reference given",irreversible retinal damage
same,Retinal toxicity,"[9]; dog, in vivo",evidence of retinal toxicity
same,Grade 4 adverse events or deaths,[10],No grade 4 adverse events (AEs) were seen; also recorded: No drug-related grade 4 adverse events or deaths were seen
same,Water solubility,[11],water soluble
